Assay results as given in patent publication US6737383B1, “Herbicidal oxadiazolidines” (priority 1999, dated 2004).

What was measured:
soybean = experiment: Test B pre/postemergence soybean; format: in vivo, Glycine max
In short: (§1)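 Herbicidal effect was estimated by eye on a ten-point control scale after plants spent twelve to sixteen days in a greenhouse following soil or foliar treatment. Foliar sprays targeted plants at one to four leaves; all doses were formulated in a non-phytotoxic solvent with surfactant.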

wild oat = experiment: Test B pre/postemergence wild oat; format: in vivo, Avena fatua
In short: as §1

surinam grass = experiment: Test B pre/postemergence surinam grass; format: in vivo, Brachiaria decumbens
In short: as §1

rape = experiment: Test B pre/postemergence rape; format: in vivo, Brassica napus
In short: as §1

bedstraw = experiment: Test B pre/postemergence bedstraw; format: in vivo, Galium aparine
In short: as §1

cocklebur = experiment: Test B pre/postemergence cocklebur; format: in vivo, Xanthium strumarium
In short: as §1

pigweed = experiment: Test B pre/postemergence pigweed; format: in vivo, Amaranthus retroflexus
In short: as §1

morningglory = experiment: Test B pre/postemergence morningglory; format: in vivo, Ipomoea hederacea
In short: as §1

velvetleaf = experiment: Test B pre/postemergence velvetleaf; format: in vivo, Abutilon theophrasti
In short: as §1

corn = experiment: Test B pre/postemergence corn; format: in vivo, Zea mays
In short: as §1

crabgrass = experiment: Test B pre/postemergence crabgrass; format: in vivo, Digitaria sanguinalis
In short: as §1

blackgrass = experiment: Test B pre/postemergence blackgrass; format: in vivo, Alopecurus myosuroides
In short: as §1

giant foxtail = experiment: Test B pre/postemergence giant foxtail; format: in vivo, Setaria faberii
In short: as §1

purple nutsedge = experiment: Test B pre/postemergence purple nutsedge; format: in vivo, Cyperus rotundus; settings: Postemergence; for Nutsedge plant response rating: 10 is complete control; for Plant response rating, Nutsedge: scale of 0 to 10 where 0 is no effect and 10 is complete control
In short: as §1

sugar beet = experiment: Test B pre/postemergence sugar beet; format: in vivo, Beta vulgaris
In short: as §1

wheat = experiment: Test B pre/postemergence wheat; format: in vivo, Triticum aestivum
In short: as §1

[1] = Postemergence, Rate 62 g/ha, scale of 0 to 10, 0 is no effect, 10 is complete control
[2] = Postemergence, Rate 500 g/ha, scale of 0 to 10 where 0 is no effect and 10 is complete control
[3] = Preemergence, Rate 62 g/ha, scale 0 to 10 (0 no effect, 10 complete control)
[4] = Preemergence, Rate 125 g/ha, scale 0 to 10, 0 is no effect, 10 is complete control
[5] = Preemergence, Rate 500 g/ha, scale of 0 to 10 where 0 is no effect and 10 is complete control
[6] = Rate 250 g/ha, Postemergence, scale of 0 to 10 where 0 is no effect and 10 is complete control
[7] = Postemergence, Rate 125 g/ha, scale 0 to 10, 0 is no effect, 10 is complete control

Compound: CC(C)N(C(=O)n1oc(=O)n(CCCF)c1=O)c1ccccc1 [Compound 559]
- Soybean plant response rating (soybean; [1]): 4
- Plant response rating, Soybean (soybean; [2]): 6
- Soybean plant response rating (soybean; [3]): 0
- Soybean plant response rating (soybean; [4]): 2
- Soybean plant response rating (0 to 10 scale) (soybean; Preemergence, Rate 250 g/ha): 3
- Soybean plant response rating (soybean; [5]): 3
- Plant response rating, Soybean (soybean; [6]): 5
- Wild oats plant response rating (wild oat; [1]): 2
- Plant response rating, Wild oats (wild oat; [2]): 5
- Wild oats plant response rating (wild oat; [4]): 9
- Wild oats plant response rating (0 to 10 scale) (wild oat; Preemergence, Rate 250 g/ha): 9
- Wild oats plant response rating (wild oat; [5]): 9
- Plant response rating, Wild oats (wild oat; [6]): 4
- B. signalgrass plant response rating (surinam grass; [1]): 4
- B. signalgrass plant response rating (surinam grass; [7]): 9
- Plant response rating, B. signalgrass (surinam grass; [2]): 9
- B. signalgrass plant response rating (surinam grass; [3]): 8
- B. signalgrass plant response rating (surinam grass; [4]): 10
- B. signalgrass plant response rating (0 to 10 scale, 0 is no effect, 10 is complete control) (surinam grass; Preemergence, Rate 250 g/ha): 9
- B. signalgrass plant response rating (surinam grass; [5]): 9
- Plant response rating, B. signalgrass (surinam grass; [6]): 9
- Rape plant response rating (rape; [1]): 0
- Rape plant response rating (rape; [7]): 0
- Plant response rating, Rape (rape; [2]): 2
- Rape plant response rating (rape; [3]): 7
- Rape plant response rating (rape; [4]): 9
- Rape plant response rating (0 to 10 scale) (rape; Preemergence, Rate 250 g/ha): 10
- Rape plant response rating (rape; [5]): 10
- Plant response rating, Rape (rape; [6]): 2
- Bedstraw plant response rating (bedstraw; [7]): 0
- Plant response rating, Bedstraw (bedstraw; [2]): 4
- Bedstraw plant response rating (bedstraw; [3]): 0
- Bedstraw plant response rating (bedstraw; [4]): 0
- Bedstraw plant response rating (0 to 10 scale) (bedstraw; Preemergence, Rate 250 g/ha): 0
- Bedstraw plant response rating (bedstraw; [5]): 0
- Plant response rating, Bedstraw (bedstraw; [6]): 0
- Cocklebur plant response rating (cocklebur; [1]): 0
- Cocklebur plant response rating (cocklebur; [7]): 0
- Plant response rating, Cocklebur (cocklebur; [2]): 2
- Cocklebur plant response rating (cocklebur; [3]): 0
- Cocklebur plant response rating (cocklebur; [4]): 0
- Cocklebur plant response rating (0 to 10 scale) (cocklebur; Preemergence, Rate 250 g/ha): 0
- Cocklebur plant response rating (cocklebur; [5]): 2
- Plant response rating, Cocklebur (cocklebur; [6]): 0
- Redroot pigweed plant response rating (pigweed; [1]): 0
- Plant response rating, Redroot pigweed (pigweed; [2]): 8
- Redroot pigweed plant response rating (pigweed; [3]): 7
- Redroot pigweed plant response rating (pigweed; [4]): 10
- Redroot pigweed plant response rating (0 to 10 scale) (pigweed; Preemergence, Rate 250 g/ha): 10
- Redroot pigweed plant response rating (pigweed; [5]): 10
- Plant response rating, Redroot pigweed (pigweed; [6]): 3
- Morningglory plant response rating (morningglory; [1]): 9
- Morningglory plant response rating (morningglory; [7]): 10
- Plant response rating, Morningglory (morningglory; [2]): 10
- Morningglory plant response rating (morningglory; [3]): 0
- Morningglory plant response rating (morningglory; [4]): 2
- Morningglory plant response rating (0 to 10 scale) (morningglory; Preemergence, Rate 250 g/ha): 4
- Morningglory plant response rating (morningglory; [5]): 8
- Plant response rating, Morningglory (morningglory; [6]): 9
- Velvetleaf plant response rating (velvetleaf; [1]): 0
- Plant response rating, Velvetleaf (velvetleaf; [2]): 3
- Velvetleaf plant response rating (velvetleaf; [3]): 3
- Velvetleaf plant response rating (velvetleaf; [4]): 4
- Velvetleaf plant response rating (0 to 10 scale) (velvetleaf; Preemergence, Rate 250 g/ha): 6
- Velvetleaf plant response rating (velvetleaf; [5]): 9
- Plant response rating, Velvetleaf (velvetleaf; [6]): 2
- Corn plant response rating (corn; [1]): 0
- Corn plant response rating (corn; [7]): 0
- Plant response rating, Corn (corn; [2]): 7
- Corn plant response rating (corn; [3]): 2
- Corn plant response rating (corn; [4]): 3
- Corn plant response rating (0 to 10 scale) (corn; Preemergence, Rate 250 g/ha): 6
- Corn plant response rating (corn; [5]): 6
- Plant response rating, Corn (corn; [6]): 6
- Crabgrass plant response rating (crabgrass; [1]): 5
- Crabgrass plant response rating (crabgrass; [7]): 4
- Plant response rating, Crabgrass (crabgrass; [2]): 9
- Crabgrass plant response rating (crabgrass; [3]): 9
- Crabgrass plant response rating (crabgrass; [4]): 10
- Crabgrass plant response rating (0 to 10 scale) (crabgrass; Preemergence, Rate 250 g/ha): 10
- Crabgrass plant response rating (crabgrass; [5]): 10
- Plant response rating, Crabgrass (crabgrass; [6]): 9
- Blackgrass plant response rating (blackgrass; [1]): 7
- Blackgrass plant response rating (blackgrass; [7]): 7
- Plant response rating, Blackgrass (blackgrass; [2]): 7
- Blackgrass plant response rating (blackgrass; [3]): 9
- Blackgrass plant response rating (blackgrass; [4]): 10
- Blackgrass plant response rating (0 to 10 scale) (blackgrass; Preemergence, Rate 250 g/ha): 10
- Blackgrass plant response rating (blackgrass; [5]): 10
- Plant response rating, Blackgrass (blackgrass; [6]): 7
- Giant foxtail plant response rating (giant foxtail; [1]): 9
- Giant foxtail plant response rating (giant foxtail; [7]): 9
- Plant response rating, Giant foxtail (giant foxtail; [2]): 9
- Giant foxtail plant response rating (giant foxtail; [3]): 10
- Giant foxtail plant response rating (giant foxtail; [4]): 10
- Giant foxtail plant response rating (0 to 10 scale) (giant foxtail; Preemergence, Rate 250 g/ha): 10
- Giant foxtail plant response rating (giant foxtail; [5]): 10
- Plant response rating, Giant foxtail (giant foxtail; [6]): 9
- Nutsedge plant response rating (purple nutsedge; Rate 62 g/ha, scale of 0 to 10, 0 is no effect): 0
- Nutsedge plant response rating (purple nutsedge; Rate 125 g/ha, scale 0 to 10, 0 is no effect): 0
- Plant response rating, Nutsedge (purple nutsedge; Rate 500 g/ha): 2
- Plant response rating, Nutsedge (purple nutsedge; Rate 250 g/ha): 2
- Sugarbeets plant response rating (sugar beet; [1]): 0
- Plant response rating, Sugarbeets (sugar beet; [2]): 8
- Sugarbeets plant response rating (sugar beet; [3]): 3
- Sugarbeets plant response rating (sugar beet; [4]): 6
- Sugarbeets plant response rating (0 to 10 scale) (sugar beet; Preemergence, Rate 250 g/ha): 9
- Sugarbeets plant response rating (sugar beet; [5]): 9
- Plant response rating, Sugarbeets (sugar beet; [6]): 2
- Wheat plant response rating (wheat; [1]): 2
- Plant response rating, Wheat (wheat; [2]): 3
- Wheat plant response rating (wheat; [3]): 3
- Wheat plant response rating (wheat; [4]): 8
- Wheat plant response rating (0 to 10 scale) (wheat; Preemergence, Rate 250 g/ha): 9
- Wheat plant response rating (wheat; [5]): 9
- Plant response rating, Wheat (wheat; [6]): 2
